Test results from patent US8257696B2, “Indefinite culture of human adult glia without immortalization and therapeutic uses thereof” (University of Florida Research Foundation, Inc., priority 2004, dated 2012).
Entries after “also recorded” stand apart in the source; their conditions may differ.

Key:
Assay type in all cases: cell-based, human
[1] = tested on: high passage cells (HES astroglia); assay: Senescence-associated β-galactosidase (SA-β-gal) expression after growth arrestors; conditions: evaluated 7 days after addition, 1 μg/ml aphidicolin or 20 μM EGCG, vs age-matched controls
Experimental: Primary tissue was gathered from individuals undergoing surgery related to medically intractable temporal lobe epilepsy. Primary tissue was removed and stored overnight in ice-cold DMEM/F-12 medium containing 20 mg/ml penicillin, […] streptomycin., and 25 ng/ml amphotericin B (collectively 1× antibiotics). Hippocampus (containing hilus) and temporal cortex (not containing subventricular zone) were microdissected from biopsied tissue samples (n=4, data presented from person). Dissected tissues were placed in 1× phosphate buffered saline (PBS, pH 7.3) lacking CaCl2 or MgCl2, and were manually dissociated into 1 mm^3 pieces under sterile conditions. Tissues were collected and resuspended in 0.005% trypsin (15 min, 37° C., pH 7.3), and were further triturated using restricted bore pipetting. Cells were collected, resuspended in proliferative media, and seeded onto uncoated T75 culture flasks overnight (12 hr, 37° C., 5% humidified CO2). […] Cells were dissociated with 0.005% trypsin, counted (using trypan dye exclusion as viability criteria), and were replated onto uncoated 60 mm plastic dishes. […] To assess viability of cells in various growth conditions, equal numbers of culture-matched cells were seeded into triplicate wells of various proliferative conditions, and counted 7, 14, and 21 days later. […] Significance (p<0.05) was calculated using a student's t-test. […]

TERT = assay: Telomerase (TERT) expression after growth arrest; conditions: high passage cells, measured 7 days after addition
Experimental: Cells were plated on coverslips coated with poly-L-lysine or polyornithine and laminin and grown to confluency in proliferative media. Cells were fixed with 4% paraformaldehyde ([…], 25° C.). After washing with PBS, cells were blocked 20 min in PBS containing 10% FCS, 5% normal goat serum, and 0.01% Triton X-100. Primary antibodies were applied for either 1 hour at 25° C. or overnight at 4° C. in PBS containing 10% FCS and 0.01% Triton X-100. Primary antibodies: β III tubulin (mouse monoclonal, 1:300, Promega), BrdU (mouse monoclonal, 1:50, Becton-Dickinson), CNPase (mouse monoclonal, 1:250, Chemicon), GFAP (rabbit polyclonal, 1:600, DAKO), glutamine synthetase (rabbit polyclonal, 1:100, AbCam), map2a-c (chicken polyclonal, 1:30,000), nestin (mouse monoclonal, 1:50, Chemicon), O4 (mouse monoclonal IgM, 1:150, Chemicon), S100-β (rabbit polyclonal, 1:100, Swant), telomerase (rabbit polyclonal, 1:200, Santa Cruz). Secondary antibodies were applied for 45 min at 25° C. in PBS containing 10% FCS and 0.01% Triton X-100. […] SA-βGal expression was assessed 7 days after addition of growth arrestors as described (Dimri, G. P. et al. Proc Nat'l Acad Sci U S A 92, 9363-7 (1995)). […] Fluorescence microscopy was performed on a Leica DMLB upright microscope and images were captured with a Spot RT Color CCD camera (Diagnostic Instruments). […]

[2] = tested on: high passage cells (HES astroglia); assay: Growth rate by cell counting after reversible growth inhibitors and washout; conditions: for proliferation upon removal of growth inhibitors: after removal of inhibitor; for rate of cellular proliferation (growth rate): high passage cells, measured 7 days after addition
Experimental: Primary tissue was gathered from individuals undergoing surgery related to medically intractable temporal lobe epilepsy. Primary tissue was removed and stored overnight in ice-cold DMEM/F-12 medium containing 20 mg/ml penicillin, […] streptomycin., and 25 ng/ml amphotericin B (collectively 1× antibiotics). Hippocampus (containing hilus) and temporal cortex (not containing subventricular zone) were microdissected from biopsied tissue samples (n=4, data presented from person). Dissected tissues were placed in 1× phosphate buffered saline (PBS, pH 7.3) lacking CaCl2 or MgCl2, and were manually dissociated into 1 mm^3 pieces under sterile conditions. Tissues were collected and resuspended in 0.005% trypsin (15 min, 37° C., pH 7.3), and were further triturated using restricted bore pipetting. Cells were collected, resuspended in proliferative media, and seeded onto uncoated T75 culture flasks overnight (12 hr, 37° C., 5% humidified CO2). Unattached cells were collected and seeded onto uncoated 60 mm plastic dishes in proliferative media. Proliferative media was comprised of DMEM/F-12 containing N2 supplements, 35 μg/ml bovine pituitary extract, 1× antibiotics, 5% fetal calf serum (FCS), and 40 ng/ml of EGF and FGF. 20 ng of EGF and FGF were supplemented twice daily. When necessary, media was changed every fourth day. Cells were frozen in aliquots of 1 million cells in DMEM/F-12 containing 10% FCS and 20% dimethyl sulfoxide (v/v). Cells were passaged 1:2 when confluent. Cells were dissociated with 0.005% trypsin, counted (using trypan dye exclusion as viability criteria), and were replated onto uncoated 60 mm plastic dishes. For growth monitoring experiments, 1 μg/ml aphidicolin or 20 μM EGCG were added to culture media 1 hour after plating. Irradiated cells were treated with a single 3 Gy dose of X-irradiation. Following the period of application, cells were washed in 1×PBS and were resuspended in proliferative media or fixed. To assess viability of cells in various growth conditions, equal numbers of culture-matched cells were seeded into triplicate wells of various proliferative conditions, and counted 7, 14, and 21 days later. For growth factor analysis, EGF and/or FGF were removed for seven days, and surviving cells were returned to proliferative media. Significance (p<0.05) was calculated using a student's t-test. In vitro images of cultured cells were captured using a Nikon Eclipse TS-100 bright field microscope and a Spot 3.1 digital camera (Diagnostic Instruments).
Isolation and Culture of Tissue: Primary tissue was gathered from individuals undergoing surgery related to medically intractable temporal lobe epilepsy. […]

epigallocatechin-3-gallate [EGCG]
SA-β-gal expression [1]: marked increase in SA-β-Gal; also recorded: express SA-β-Gal
TERT (telomerase) expression (TERT): continue to express telomerase; also recorded: remained detectable; also recorded: remained ubiquitous
proliferation upon removal of growth inhibitors [2]: return to previous levels of proliferation
rate of cellular proliferation (growth rate) [2]: lose their ability to proliferate in culture; also recorded: significantly reduced; also recorded: significant reduction

C[C@@]1(CO)[C@H](O)CC[C@@]2(C)[C@H]1CC[C@H]1C[C@@H]3C[C@@]12CC[C@]3(O)CO [aphidicolin]
SA-β-gal expression [1]: marked increase in SA-β-Gal; also recorded: significantly higher levels of SA-β-gal than age-matched controls
TERT (telomerase) expression (TERT): continue to express telomerase
proliferation upon removal of growth inhibitors [2]: return to previous levels of proliferation
rate of cellular proliferation (growth rate) [2]: lose their ability to proliferate in culture
